Read-outs that look alike come from different tables or passages of the source.
Assays:
MDA-MB-231 cells = test: Cell Titer-Glo Luminescent Cell Viability assay, breast cancer cells; format: cell-based, Human; details: half-maximal inhibition at 24 h
Description: (§1) Human breast cancer cells MDA-MB-231 and colorectal cancer cells HT29, were maintained in DMEM medium (Invitrogen, Cergy Pontoise, France). Human lung cancer cells NCI-H460-Luc2 (Caliper Life Sciences, US) (NSCLC) were maintained in RPMI 1640 (Hyclone Thermo Scientific, MA United States). All media were supplemented with antibiotics (penicillin 50.00 U/ml; streptomycin […]) (Invitrogen, Cergy Pontoise, France) and 10.00% fetal bovine serum (FBS, Biowest, Nouaille, France).
Cells were seeded in 96-well plates at a density of 5,000 cells/well. […] Control culture cells were treated with 0.10% DMSO.
(§2) The effect of the test compounds on cell viability was determined using a Cell Titer-Glo Luminescent Cell Viability assay (Promega Corporation, Madison, USA), based on quantification of ATP, which signals the presence of metabolically active cells. Luminescent signal was measured using GLOMAX Luminometer system. The data were presented as proportional viability (%) by comparing the treated group with the untreated cells, the viability of which is assumed to be 100%.
(§3) Inhibition rates ranged between 50.00 and 98.00% were recorded for all compounds at 100.00 μM concentration. The IC50 is the concentration at which half-maximal inhibition occurs at 24 h. Approximate IC50 value of 100.00 μM was obtained after 24.00 hours.
(§4) Exponentially growing MDA-MB-231, NCI-H460-Luc2 and HT29 cells were treated with vehicle (0.10% DMSO) and the indicated concentrations of investigated compounds. Viable cells were assayed as described in Materials and Methods. Exposure times of 24.00 and 48.00 hours were applied. All experiments were repeated at least three times.

HT29 cells = test: Cell Titer-Glo Luminescent Cell Viability assay, colorectal cancer cells; format: cell-based, Human; details: death of 50% of the cells, half-maximal inhibition at 24 h, read-out: IC50 HT29 Colon Cancer
Description: as §1
(§5) Cells were seeded in 96-well plates at a density of 5,000 cells/well. After 24.00 hours of seeding, resultant cells' arrays were treated for 24.00-48.00 hours with increasing concentrations of the test compounds (5.00-100.00 μM), in triplicates. Control culture cells were treated with 0.10% DMSO.
as §2
as §3, with “The effects of investigated compounds at concentrations 5.00-100.00 μM on MDA-MB-231, NCI-H460-Luc2 and HT29 cells were investigated after 24.00 and 48.00 hours exposures. […] Inhibition” for “Inhibition”
as §4

NCI-H460-Luc2 cells = test: Cell Titer-Glo Luminescent Cell Viability assay, lung cancer cells; format: cell-based, Human; details: death of 50% of the cells, half-maximal inhibition at 24 h
Description: as §1, §5, §2
as §3, with “The effects of investigated compounds at concentrations 5.00-100.00 μM on MDA-MB-231, NCI-H460-Luc2 and HT29 cells were investigated after 24.00 and 48.00 hours exposures. […] Inhibition” for “Inhibition”
as §4

| Structure (SMILES) | IC50 (MDA-MB-231 cells; Homo sapiens, MDA-MB-231) [µM] | IC50 (HT29 cells; Homo sapiens, HT-29) [µM] | IC50 (NCI-H460-Luc2 cells; Homo sapiens) [µM] | melting point [°C] | IC50 (MDA-MB-231 cells) [µM] | IC50 (HT29 cells) [µM] | IC50 (NCI-H460-Luc2 cells) [µM] |
| --- | --- | --- | --- | --- | --- | --- | --- |
| Cc1c(N=Nc2ccc(F)cc2)c(-c2ccccc2)[nH]c(=O)c1C#N [If, 3-Cyano-4-methyl-6-phenyl-5-(4′-fluorophenylazo)-pyridine-2(1H)-one] | 75.4 | 93.9 | 30 | 252 | – | – | – |
| Cc1[nH]c(=O)c(C#N)c(C)c1N=Nc1ccc(F)cc1 [Ic, 3-Cyano-4,6-dimethyl-5-(4′-fluorophenylazo)-pyridine-2(1H)-one] | 216 | – | – | 272 | – | – | – |
| Cc1[nH]c(=O)c(C#N)c(C)c1N=Nc1cccc(C(F)(F)F)c1 [Ib, 3-Cyano-4,6-dimethyl-5-(3′-trifluoromethylphenylazo)-pyridine-2(1H)-one] | 270 | – | – | 265 | – | – | – |
| Cc1[nH]c(=O)c(C#N)c(C)c1N=Nc1ccccc1F [Ia, 3-Cyano-4,6-dimethyl-5-(2′-fluorophenylazo)-pyridine-2(1H)-one] | 483 | – | – | 257 | – | – | – |
| Cc1[nH]c(=O)c(C#N)c(C)c1N=Nc1ccc([N+](=O)[O-])cc1 [Compound Ig, 3-Cyano-4,6-dimethyl-5-(4′-nitrorthenylazo)-pyridine-2(1H)-one] | – | – | – | – | 72.4 | 39 | 29.8 |
| Cc1c(N=Nc2cccc(C(F)(F)F)c2)c(-c2ccccc2)[nH]c(=O)c1C#N [Ie, 3-Cyano-4-methyl-6-phenyl-5-(3′-trifluoromethylphenylazo)-pyridine-2(1H)-one] | 90.5 | 64.5 | 35.9 | 237 | – | – | – |
| Cc1c(N=Nc2ccccc2F)c(-c2ccccc2)[nH]c(=O)c1C#N [Id, 3-Cyano-4-methyl-6-phenyl-5-(2′-fluorophenylazo)-pyridine-2(1H)-one] | – | – | – | 225 | – | – | – |
| Cc1c(N=Nc2ccc([N+](=O)[O-])cc2)c(-c2ccccc2)[nH]c(=O)c1C#N [Ih, 3-Cyano-4-methyl-6-phenyl-5-(4′-nitronthenylazo)-pyridine-2(1H)-one] | – | – | – | – | 172 | 29.9 | 30.7 |
